Measured values reported in patent publication US20110151031A1, “COMPOSITIONS AND METHODS FOR UTILIZING THE SAME” (DBC, LLC, priority 2008, published 2011).

Legend:
[1] = DPPH radical scavenging test; format: biochemical; conditions: Example 6 at a dose of 0.1 mg/ml; absorbance at 520 nm
Protocol: (§1) In this example, free radical-scavenging ability was determined as an indicator of antioxidant action. Specifically, free radicals produced by xanthine oxidase were determined by 1,1-diphenyl-2-picrylhydrayil (DPPH, Aldrich). First, xanthine oxidase (Aldrich) was dissolved in 0.01 M phosphate buffer. Hypoxanthine was added to this solution, and the solution was warmed at 37° C. to generate free radicals. To this solution, the composition of Example 6 was added. Further, 0.1 M DPPH solution was added to determine absorbance at 520 nm. Superoxide dismutase (SOD) activity was also determined using Electron Spin Resonance (ESR) in xanthine and xanthine-odixase system. In both cases, vitamin E was used as a positive control.

[2] = Superoxide dismutase (SOD) activity by ESR in xanthine and xanthine-oxidase system; format: biochemical
Protocol: as §1

SOD activity [2]: 90 units/g
Substance: vitamin E [VitaminE]
free radical-scavenging ability (DPPH) [1]: 460 units/g
